Legend:
Adenosine receptor A3 = target: T1, Adenosine receptor A3 (Homo sapiens, UniProt P0DMS8); experiment: Ability to displace radioligand [125I]AB-MECA from membrane of HEK 293 cells stably transfected with human adenosine A3 receptor cDNA; type: cell membranes, HEK293
T1 sequence (P0DMS8 whole entry): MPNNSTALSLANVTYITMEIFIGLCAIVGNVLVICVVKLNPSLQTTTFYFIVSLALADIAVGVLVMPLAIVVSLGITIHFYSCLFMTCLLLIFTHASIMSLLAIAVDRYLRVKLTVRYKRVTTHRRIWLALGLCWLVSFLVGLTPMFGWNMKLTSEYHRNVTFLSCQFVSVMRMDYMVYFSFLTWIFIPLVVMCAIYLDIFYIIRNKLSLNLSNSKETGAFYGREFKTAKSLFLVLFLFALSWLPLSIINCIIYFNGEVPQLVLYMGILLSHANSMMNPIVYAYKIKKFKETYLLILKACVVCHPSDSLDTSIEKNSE

Adenosine receptor A2a = Adenosine receptor A2a (Rattus norvegicus, UniProt P30543)
Sequence of Adenosine receptor A2a (P30543 whole entry): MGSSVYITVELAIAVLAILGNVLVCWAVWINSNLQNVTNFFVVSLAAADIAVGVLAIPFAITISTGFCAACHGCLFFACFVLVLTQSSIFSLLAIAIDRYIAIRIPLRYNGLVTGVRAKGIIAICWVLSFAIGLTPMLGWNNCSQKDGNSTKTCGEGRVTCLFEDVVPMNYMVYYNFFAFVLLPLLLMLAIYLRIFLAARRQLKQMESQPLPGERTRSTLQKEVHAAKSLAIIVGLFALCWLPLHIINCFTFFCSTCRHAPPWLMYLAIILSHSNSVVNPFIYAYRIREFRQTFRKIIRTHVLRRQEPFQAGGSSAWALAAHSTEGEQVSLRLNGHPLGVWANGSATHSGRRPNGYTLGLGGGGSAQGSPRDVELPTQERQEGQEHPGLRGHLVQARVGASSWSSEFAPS

Adenosine receptor A2b = target: T2, Adenosine receptor A2b (Homo sapiens, UniProt P29275); experiment: Effective concentration for cAMP production in CHO-KI cells stably transfected with human adenosine A2B receptor cDNA
T2 sequence (P29275 whole entry): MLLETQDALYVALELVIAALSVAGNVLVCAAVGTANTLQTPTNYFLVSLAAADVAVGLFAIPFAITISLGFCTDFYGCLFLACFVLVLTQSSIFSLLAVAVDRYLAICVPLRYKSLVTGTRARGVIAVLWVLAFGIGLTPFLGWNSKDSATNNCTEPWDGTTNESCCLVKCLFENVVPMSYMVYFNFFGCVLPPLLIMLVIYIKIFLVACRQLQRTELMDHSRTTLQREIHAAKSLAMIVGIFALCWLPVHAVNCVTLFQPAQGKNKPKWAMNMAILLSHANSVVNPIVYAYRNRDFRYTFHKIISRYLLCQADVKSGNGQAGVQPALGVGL

Adenosine receptor A1 [1] = target: T3, Adenosine receptor A1 (Rattus norvegicus, UniProt P25099)
T3 sequence (P25099 whole entry): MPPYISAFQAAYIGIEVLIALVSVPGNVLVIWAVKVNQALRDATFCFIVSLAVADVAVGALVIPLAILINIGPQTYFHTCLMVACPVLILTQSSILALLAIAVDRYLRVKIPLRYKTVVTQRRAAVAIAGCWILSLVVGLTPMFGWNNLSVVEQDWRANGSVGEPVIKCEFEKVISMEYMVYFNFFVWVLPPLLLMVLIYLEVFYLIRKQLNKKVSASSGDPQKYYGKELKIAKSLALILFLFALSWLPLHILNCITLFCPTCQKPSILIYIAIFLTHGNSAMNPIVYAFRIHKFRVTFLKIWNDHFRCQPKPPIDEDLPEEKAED
Description: Ability to displace radioligand [3H]- DPCPX from adenosine A1 receptor on rat cortical membrane in the absence of GTP

Adenosine receptor A1 [2] = target: T3, Adenosine receptor A1; experiment: Ability to displace radioligand [3H]- DPCPX from adenosine A1 receptor on rat cortical membrane in the presence of 1 mM of GTP
[3] = target: T4, Adenosine receptor A2b (Homo sapiens) (UniProt P29275); experiment: Effective concentration for cAMP production in CHO-KI cells expressing human adenosine A2B receptor at 100 uM; type: functional, cell-based
T4 sequence (whole entry): T2 sequence (P29275 whole entry)

[4] = GTP shift was determined

## Nc1ncnc2c1ncn2[C@@H]1O[C@H](C(=O)NC2CCC2)[C@@H](O)[C@H]1O
Adenosine receptor A3
  Ki: 23 nM
Adenosine receptor A2a
  Ki: 49 nM
Adenosine receptor A2b
  EC50: 33000 nM

## CNC(=O)[C@H]1O[C@@H](n2cnc3c(N)ncnc32)[C@H](O)[C@@H]1O
Adenosine receptor A1 [1]
  Ki: 1080 nM
Adenosine receptor A3
  Ki: 6.4 nM
Adenosine receptor A2b
  EC50: 45000 nM
Adenosine receptor A1 [2]
  Ki: 6840 nM

## CC(C)(C)NC(=O)[C@H]1O[C@@H](n2cnc3c(N)ncnc32)[C@H](O)[C@@H]1O
Adenosine receptor A1 [1]
  Ki: 2730 nM
[3]
  Emax: 10%
Adenosine receptor A3
  Ki: 8500 nM
Adenosine receptor A2a
  Ki: 1340 nM
[4]
  GTP shift: 2.6
Adenosine receptor A1 [2]
  Ki: 6950 nM

## CNC(=O)[C@H]1O[C@@H](n2cnc3c(NCc4cccc(I)c4)ncnc32)[C@H](O)[C@@H]1O [IB-MECA]
Adenosine receptor A2b
  EC50: 11000 nM

## CCNC(=S)[C@H]1O[C@@H](n2cnc3c(N)ncnc32)[C@H](O)[C@@H]1O
Adenosine receptor A1 [1]
  Ki: 141 nM
Adenosine receptor A3
  Ki: 569 nM
Adenosine receptor A2a
  Ki: 130 nM
[4]
  GTP shift: 3.4
Adenosine receptor A2b
  EC50: 16000 nM
Adenosine receptor A1 [2]
  Ki: 478 nM

## Nc1ncnc2c1ncn2[C@@H]1O[C@H](C(=O)NC2CC2)[C@@H](O)[C@H]1O
Adenosine receptor A3
  Ki: 108 nM
Adenosine receptor A2b
  EC50: 5300 nM

## CC(C)NC(=O)[C@H]1OC(n2cnc3c(N)ncnc32)[C@H](O)[C@@H]1O (some centres not stated)
Adenosine receptor A1 [1]
  Ki: 257 nM
Adenosine receptor A3
  Ki: 211 nM
Adenosine receptor A2a
  Ki: 160 nM
[4]
  GTP shift: 3.1
Adenosine receptor A2b
  EC50: 37000 nM
Adenosine receptor A1 [2]
  Ki: 804 nM

## Nc1ncnc2c1ncn2[C@@H]1O[C@H](C(=O)NCCCl)[C@@H](O)[C@H]1O
Adenosine receptor A1 [1]
  Ki: 248 nM
Adenosine receptor A3
  Ki: 322 nM
Adenosine receptor A2a
  Ki: 410 nM
[4]
  GTP shift: 3.6
Adenosine receptor A2b
  EC50: 32000 nM
Adenosine receptor A1 [2]
  Ki: 890 nM

## Nc1ncnc2c1ncn2[C@@H]1O[C@H](C(=S)NC2CC2)[C@@H](O)[C@H]1O
Adenosine receptor A1 [1]
  Ki: 137 nM
Adenosine receptor A3
  Ki: 2280 nM
Adenosine receptor A2a
  Ki: 130 nM
[4]
  GTP shift: 3.4
Adenosine receptor A2b
  EC50: 13000 nM
Adenosine receptor A1 [2]
  Ki: 459 nM

## Nc1ncnc2c1ncn2[C@@H]1O[C@H](C(=O)NC2CCCC2)[C@@H](O)[C@H]1O
Adenosine receptor A1 [1]
  Ki: 770 nM
Adenosine receptor A3
  Ki: 32 nM
Adenosine receptor A2a
  Ki: 610 nM
[4]
  GTP shift: 6.4
Adenosine receptor A2b
  EC50: 54000 nM
Adenosine receptor A1 [2]
  Ki: 4900 nM

## CONC(=O)[C@H]1O[C@@H](n2cnc3c(N)ncnc32)[C@H](O)[C@@H]1O
Adenosine receptor A1 [1]
  Ki: 1620 nM
Adenosine receptor A3
  Ki: 85.3 nM
Adenosine receptor A2a
  Ki: 623 nM
[4]
  GTP shift: 2.4
Adenosine receptor A2b
  EC50: 45000 nM
Adenosine receptor A1 [2]
  Ki: 1960 nM

— ChEMBL document CHEMBL1132702, “5'-N-substituted carboxamidoadenosines as agonists for adenosine receptors” (J Med Chem, 1999)
